From the CheMixHub viscosity set
Where “and” joins values, the source holds several entries; their conditions need not be identical. Identical values can stand only once.

Test: xn = mol fraction of the nth substance listed

CC(=O)N(C)C + O
Conditions	viscosity
298.15 K, 101 kPa, x1 = 0.0203	1.214 mPa·s
298.15 K, 101 kPa, x1 = 0.025	1.265 mPa·s
298.15 K, 101 kPa, x1 = 0.0502	1.653 mPa·s
298.15 K, 101 kPa, x1 = 0.065	1.871 mPa·s
298.15 K, 101 kPa, x1 = 0.0703	1.982 mPa·s
298.15 K, 101 kPa, x1 = 0.1	2.467 mPa·s
298.15 K, 101 kPa, x1 = 0.1011	2.413 mPa·s
298.15 K, 101 kPa, x1 = 0.12	2.754 mPa·s
298.15 K, 101 kPa, x1 = 0.1203	2.797 mPa·s
298.15 K, 101 kPa, x1 = 0.1495	3.161 mPa·s
298.15 K, 101 kPa, x1 = 0.1497	3.223 mPa·s
298.15 K, 101 kPa, x1 = 0.1698	3.471 mPa·s
298.15 K, 101 kPa, x1 = 0.2003	3.774 mPa·s
298.15 K, 101 kPa, x1 = 0.2004	3.728 mPa·s
298.15 K, 101 kPa, x1 = 0.22	3.908 mPa·s
298.15 K, 101 kPa, x1 = 0.2497	4.023 mPa·s
298.15 K, 101 kPa, x1 = 0.2512	3.94 mPa·s
298.15 K, 101 kPa, x1 = 0.2701	4.04 mPa·s
298.15 K, 101 kPa, x1 = 0.3	3.99 mPa·s
298.15 K, 101 kPa, x1 = 0.3002	3.941 mPa·s
298.15 K, 101 kPa, x1 = 0.32	3.917 mPa·s
298.15 K, 101 kPa, x1 = 0.3501	3.692 mPa·s and 3.761 mPa·s
298.15 K, 101 kPa, x1 = 0.4002	3.426 mPa·s
298.15 K, 101 kPa, x1 = 0.4009	3.341 mPa·s
298.15 K, 101 kPa, x1 = 0.4503	3.059 mPa·s
298.15 K, 101 kPa, x1 = 0.5003	2.69 mPa·s
298.15 K, 101 kPa, x1 = 0.5018	2.606 mPa·s
298.15 K, 101 kPa, x1 = 0.5999	2.09 mPa·s
298.15 K, 101 kPa, x1 = 0.6031	1.995 mPa·s
298.15 K, 101 kPa, x1 = 0.6505	1.777 mPa·s
298.15 K, 101 kPa, x1 = 0.7	1.646 mPa·s
298.15 K, 101 kPa, x1 = 0.7005	1.592 mPa·s
298.15 K, 101 kPa, x1 = 0.755	1.419 mPa·s
298.15 K, 101 kPa, x1 = 0.8002	1.329 mPa·s
298.15 K, 101 kPa, x1 = 0.8048	1.284 mPa·s
298.15 K, 101 kPa, x1 = 0.8499	1.212 mPa·s
298.15 K, 101 kPa, x1 = 0.8501	1.185 mPa·s
298.15 K, 101 kPa, x1 = 0.8999	1.113 mPa·s
298.15 K, 101 kPa, x1 = 0.9049	1.083 mPa·s
298.15 K, 101.33 kPa, x2 = 0.1008	1.071 mPa·s
298.15 K, 101.33 kPa, x2 = 0.2042	1.286 mPa·s
298.15 K, 101.33 kPa, x2 = 0.3008	1.582 mPa·s
298.15 K, 101.33 kPa, x2 = 0.4068	2.047 mPa·s
298.15 K, 101.33 kPa, x2 = 0.5052	2.607 mPa·s
298.15 K, 101.33 kPa, x2 = 0.6026	3.31 mPa·s
298.15 K, 101.33 kPa, x2 = 0.7051	3.873 mPa·s
298.15 K, 101.33 kPa, x2 = 0.8054	3.612 mPa·s
298.15 K, 101.33 kPa, x2 = 0.9239	2.342 mPa·s
298.16 K, 101 kPa, x2 = 0.09	1.07 mPa·s
298.16 K, 101 kPa, x2 = 0.155	1.2 mPa·s
298.16 K, 101 kPa, x2 = 0.235	1.4 mPa·s
298.16 K, 101 kPa, x2 = 0.314	1.67 mPa·s
298.16 K, 101 kPa, x2 = 0.459	2.37 mPa·s
298.16 K, 101 kPa, x2 = 0.604	3.4 mPa·s
298.16 K, 101 kPa, x2 = 0.6607	3.75 mPa·s
298.16 K, 101 kPa, x2 = 0.741	3.97 mPa·s
298.16 K, 101 kPa, x2 = 0.7645	3.94 mPa·s
298.16 K, 101 kPa, x2 = 0.8044	3.65 mPa·s
298.16 K, 101 kPa, x2 = 0.8517	3.16 mPa·s
300.2 K, 101 kPa, x2 = 0.0298	1.005 mPa·s
300.2 K, 101 kPa, x2 = 0.0519	1.037 mPa·s
300.2 K, 101 kPa, x2 = 0.0694	1.062 mPa·s
300.2 K, 101 kPa, x2 = 0.0926	1.105 mPa·s
300.2 K, 101 kPa, x2 = 0.2763	1.564 mPa·s
300.2 K, 101 kPa, x2 = 0.436	2.3 mPa·s
300.2 K, 101 kPa, x2 = 0.555	3.112 mPa·s
300.2 K, 101 kPa, x2 = 0.6259	3.615 mPa·s
300.2 K, 101 kPa, x2 = 0.6897	3.957 mPa·s
300.2 K, 101 kPa, x2 = 0.7347	4.029 mPa·s
300.2 K, 101 kPa, x2 = 0.7737	3.926 mPa·s
300.2 K, 101 kPa, x2 = 0.8015	3.741 mPa·s
300.2 K, 101 kPa, x2 = 0.8783	2.782 mPa·s
300.2 K, 101 kPa, x2 = 0.9515	1.599 mPa·s
303.15 K, 101 kPa, x1 = 0.0203	1.076 mPa·s
303.15 K, 101 kPa, x1 = 0.0502	1.443 mPa·s
303.15 K, 101 kPa, x1 = 0.0703	1.716 mPa·s
303.15 K, 101 kPa, x1 = 0.1	2.112 mPa·s
303.15 K, 101 kPa, x1 = 0.1203	2.379 mPa·s
303.15 K, 101 kPa, x1 = 0.1497	2.719 mPa·s
303.15 K, 101 kPa, x1 = 0.1698	2.915 mPa·s
303.15 K, 101 kPa, x1 = 0.2003	3.156 mPa·s
303.15 K, 101 kPa, x1 = 0.22	3.263 mPa·s
303.15 K, 101 kPa, x1 = 0.2497	3.357 mPa·s
303.15 K, 101 kPa, x1 = 0.2701	3.373 mPa·s
303.15 K, 101 kPa, x1 = 0.3	3.339 mPa·s
303.15 K, 101 kPa, x1 = 0.32	3.286 mPa·s
303.15 K, 101 kPa, x1 = 0.3501	3.169 mPa·s
303.15 K, 101 kPa, x1 = 0.4002	2.914 mPa·s
303.15 K, 101 kPa, x1 = 0.4503	2.628 mPa·s
303.15 K, 101 kPa, x1 = 0.5003	2.336 mPa·s
303.15 K, 101 kPa, x1 = 0.5999	1.852 mPa·s
303.15 K, 101 kPa, x1 = 0.7	1.484 mPa·s
303.15 K, 101 kPa, x1 = 0.8002	1.216 mPa·s
303.15 K, 101 kPa, x1 = 0.8499	1.114 mPa·s
308.15 K, 101 kPa, x1 = 0.065	1.428 mPa·s
308.15 K, 101 kPa, x1 = 0.1	1.767 mPa·s
308.15 K, 101 kPa, x1 = 0.1011	1.81 mPa·s
308.15 K, 101 kPa, x1 = 0.1495	2.307 mPa·s
308.15 K, 101 kPa, x1 = 0.2	2.629 mPa·s
308.15 K, 101 kPa, x1 = 0.2004	2.661 mPa·s
308.15 K, 101 kPa, x1 = 0.2512	2.79 mPa·s
308.15 K, 101 kPa, x1 = 0.3	2.763 mPa·s
308.15 K, 101 kPa, x1 = 0.3002	2.784 mPa·s
308.15 K, 101 kPa, x1 = 0.3501	2.667 mPa·s
308.15 K, 101 kPa, x1 = 0.4	2.479 mPa·s
308.15 K, 101 kPa, x1 = 0.4009	2.474 mPa·s
308.15 K, 101 kPa, x1 = 0.5018	1.929 mPa·s
308.15 K, 101 kPa, x1 = 0.6	1.694 mPa·s
308.15 K, 101 kPa, x1 = 0.6031	1.568 mPa·s
308.15 K, 101 kPa, x1 = 0.6505	1.424 mPa·s
308.15 K, 101 kPa, x1 = 0.7005	1.305 mPa·s
308.15 K, 101 kPa, x1 = 0.755	1.183 mPa·s
308.15 K, 101 kPa, x1 = 0.8048	1.085 mPa·s
308.15 K, 101 kPa, x1 = 0.8501	1.003 mPa·s
308.15 K, 101 kPa, x1 = 0.9049	0.922 mPa·s
318.15 K, 101 kPa, x1 = 0.025	0.784 mPa·s
318.15 K, 101 kPa, x1 = 0.065	1.106 mPa·s
318.15 K, 101 kPa, x1 = 0.1011	1.387 mPa·s
318.15 K, 101 kPa, x1 = 0.12	1.533 mPa·s
318.15 K, 101 kPa, x1 = 0.1495	1.718 mPa·s
318.15 K, 101 kPa, x1 = 0.2004	1.944 mPa·s
318.15 K, 101 kPa, x1 = 0.2512	2.05 mPa·s
318.15 K, 101 kPa, x1 = 0.3002	2.056 mPa·s
318.15 K, 101 kPa, x1 = 0.3501	1.986 mPa·s
318.15 K, 101 kPa, x1 = 0.4009	1.853 mPa·s
318.15 K, 101 kPa, x1 = 0.5018	1.553 mPa·s
318.15 K, 101 kPa, x1 = 0.6031	1.274 mPa·s
318.15 K, 101 kPa, x1 = 0.6505	1.178 mPa·s
318.15 K, 101 kPa, x1 = 0.7005	1.085 mPa·s
318.15 K, 101 kPa, x1 = 0.755	0.999 mPa·s
318.15 K, 101 kPa, x1 = 0.8048	0.932 mPa·s
318.15 K, 101 kPa, x1 = 0.8501	0.868 mPa·s
318.15 K, 101 kPa, x1 = 0.9049	0.803 mPa·s
